One series has as its target T1, h5-HT2C (Homo sapiens, UniProt P28335).
T1 sequence (P28335 33-458): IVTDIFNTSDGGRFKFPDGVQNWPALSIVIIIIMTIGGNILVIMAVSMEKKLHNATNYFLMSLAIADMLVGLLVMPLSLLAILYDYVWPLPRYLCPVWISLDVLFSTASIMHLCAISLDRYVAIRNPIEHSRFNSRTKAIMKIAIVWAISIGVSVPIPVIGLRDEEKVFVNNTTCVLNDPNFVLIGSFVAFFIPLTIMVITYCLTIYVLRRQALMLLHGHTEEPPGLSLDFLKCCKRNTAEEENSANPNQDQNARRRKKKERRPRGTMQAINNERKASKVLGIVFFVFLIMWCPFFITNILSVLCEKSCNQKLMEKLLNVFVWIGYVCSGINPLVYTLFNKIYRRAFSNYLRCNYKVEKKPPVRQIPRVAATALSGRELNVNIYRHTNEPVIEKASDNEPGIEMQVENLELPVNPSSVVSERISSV
Briefly: biochemical. The class given is binding.

In a further series the test system is C57BL/6 J mice. Kind of series: Locomotor activity in mice (dose-response sessions). The class given is in vivo, mouse. The settings on record: 30-min session, mean ± SEM. The procedure: Behavioral studies were conducted as previously described with minor modifications. Male C57BL/6 J mice (The Jackson Laboratory #000664, 24 mice/drug) were purchased at 8 weeks old, group housed for acclimation (3–5 per cage for 1–2 weeks) under a 12:12 light:dark cycle (07:00 local time = lights on), with ad libitum access to food and water at the NIDA IRP facilities in Baltimore, MD, USA. All experiments were approved by the NIDA IRP Animal Care and Use Committee. After acclimation to the vivarium facilities, each mouse was briefly anesthetized with isoflurane and a temperature transponder (14 × 2 mm, model IPTT-300, Bio Medic Data Systems, Inc., Seaford, DE, USA) was implanted subcutaneously (s.c.) on the back, posterior to the shoulder blades. After the implant, mice were single housed and allowed one week recovery prior to the start of experiments. […] Drugs were randomly assigned and administered s.c. as the weight of the form used at an injection volume of 0.01 mL/g body weight.
During experimental testing, mice were tested once every 1–2 weeks to avoid potential tolerance to behavioral effects of the test drugs and were tested 2–3 times in total per drug. Each test session began with a brief 5 min acclimation period to the testing arenas, followed by recording baseline body temperature using a handheld wand that was sensitive to the signals emitted from the s.c. transponder. After this, mice were injected s.c. with appropriate doses of test drug and returned to the chambers for a 30-min test session. During the dose-response sessions, locomotor activity was continuously recorded using open field chambers with photobeam arrays (Coulbourn Instruments, Holliston, MA, USA) that were modified with cylindrical inserts and custom floor panels that also allowed video recordings of each mouse to later quantify HTR activity (GoPro Hero 7 camera; 960p resolution at 120 frames per second). Videos for each mouse were analyzed post session using commercially available software used to quantify HTR as previously described.
(§1) Data analysis was performed with Prism software (version 10.1.2, GraphPad Software, Boston, MA, USA). The IC50 values from the radioligand binding assays were determined by nonlinear regression, using three independent concentration-response curves fitted to a one-site model. The Cheng-Prusoff equation was used to calculate Kᵢ values for the competing ligands. EC50 values were determined by applying nonlinear regression to concentration-response curves. Bias factors (β) were calculated based on the relative intrinsic activity approach. More detailed information can be found in the Supplementary information. Mean values for total number of HTR, change in body temperature from pre to post session (Δ°C), and total distance traveled (cm) for each drug dose were compared (p < 0.05) via Welch’s ANOVA with Dunnett’s T3 post test, comparing all doses to respective vehicle controls (0 mg/kg). Welch’s ANOVA with Dunnett’s T3 post test was also used to compare drug concentrations, but the data were compared to DOM in this case. Dose–response relationships for HTR and locomotor activities were plotted using bell-shaped curve fits, while temperature change data were plotted using four-parameter non-linear regression curve fits. The ascending phase of the HTR curve for each drug was used to determine ED50 potency values from four parameter non-linear regression fits. For combined DOM and DOAM administration, the plasma, brain tissue, and brain dialysate drug concentrations were compared using paired t-tests (p < 0.05). Ratios were compared using Holm-Sidak’s post hoc test following a repeated-measures one-way ANOVA (F (1.709, 6.835) = 70.80; p < 0.0001).
Locomotor activity and body temperature were also assessed to monitor other pharmacological effects of the drugs that may impact the HTR. […]

In another series the test system is mice. Details: method as in ref 20 (Halberstadt et al. 2020). The settings on record: ref 20 (Halberstadt et al. 2020), cited from earlier work; for HTR in mice ED50 (95% CI): i.p.
The target of another series is h5-HT2A (Homo sapiens, UniProt P28223). Kind of series: biochemical. In kind it is binding. Details: expressed in transfected cells; host or cells: HEK 293 cells (membrane preparation).
h5-HT2A, sequence (P28223 whole entry, looked up): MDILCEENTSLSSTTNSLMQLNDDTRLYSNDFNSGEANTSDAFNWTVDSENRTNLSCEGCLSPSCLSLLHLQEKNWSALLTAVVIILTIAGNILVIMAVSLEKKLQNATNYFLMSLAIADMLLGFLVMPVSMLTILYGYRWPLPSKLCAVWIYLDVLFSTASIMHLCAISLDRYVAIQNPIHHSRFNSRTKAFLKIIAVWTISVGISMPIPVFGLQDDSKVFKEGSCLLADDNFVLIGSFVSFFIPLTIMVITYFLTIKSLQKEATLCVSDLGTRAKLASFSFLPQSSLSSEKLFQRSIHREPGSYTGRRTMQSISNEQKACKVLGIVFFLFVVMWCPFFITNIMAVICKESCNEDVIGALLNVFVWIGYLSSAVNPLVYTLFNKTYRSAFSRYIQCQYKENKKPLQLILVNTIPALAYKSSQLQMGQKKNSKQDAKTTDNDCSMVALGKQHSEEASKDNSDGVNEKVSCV
The nature of series [1]: In vivo microdialysis (striatum) with plasma and brain levels after co-administration of DOM and DOAM. Details: species or system mouse. The settings on record: 0.5 mg/kg s.c. each; for Dialysate concentration (striatal microdialysis) after co-administration of DOM and DOAM: dialysate collected 30 min post injection, detection limit 0.04 ng/mL; for concentration at 30 min: both sexes, C57BL/6JRj, mouse, subcutaneous, 30 min post injection, mice. The procedure: Microdialysis experiments were conducted as previously reported with minor modifications; involved procedures were approved by the Cantonal Veterinary Office Basel-Stadt, in accordance with Swiss law. Three male and two female C57BL/6JRj mice (Janvier Labs, France) aged 11–14 weeks were used. During stereotactic surgeries, a guide cannula (CMA7; CMA Microdialysis AB, Sweden) directed to the striatum was implanted at 0.6 AP, 1.8 ML and -1.5 DV from bregma and fixed with dental cement. On the day of microdialysis, a microdialysis probe (CMA7, 3-mm probe length) was inserted into the guide cannula and perfused with artificial cerebrospinal fluid (119 mM NaCl, 11 mM D-glucose, 26.2 mM NaHCO3, 2.5 mM KCl, 1.3 mM MgCl2, 1 mM NaH2PO4, and 2.5 mM CaCl2) at 1 µL/min. The dialysate was collected for 30 min before s.c. injection of a mixture of DOM and DOAM (dissolved in DMSO/Tween80/saline; 1:1:18) yielding a dose of 0.5 mg/kg body weight for each substance. The dialysate post injection was collected for 30 min followed by decapitation under isoflurane anesthesia. Plasma obtained from trunk blood and homogenates of the forebrains (0.5 g brain tissue per 1 mL ice-cold water) were prepared for LC–MS/MS analysis. One hemisphere of the brain from each mouse was fixed in 4% paraformaldehyde, sectioned, and stained with Hoechst dye (2 µg/mL for 30 min) to confirm the placement of the microdialysis probe in the striatum. After running microdialysis in one or two mice, the recoveries of the microdialysis probes were assessed by collecting dialysate for 15 min at 1 µL/min with the probe immersed in a mixture of DOM and DOAM (1 µg/mL each; in artificial cerebrospinal fluid).
as §1

Where [2] appears, read: brain (forebrain homogenate), read-out: Brain tissue level after co-administration of DOM and DOAM.
Setting [3] is: plasma, read-out: Plasma level after co-administration of DOM and DOAM.

Each structure is given as a SMILES string. Like-named read-outs stand apart in the source and are kept apart here.

Broadly, the Ki is the equilibrium dissociation constant of an inhibitor or competing ligand from its target. Low values mean tighter binding, high ones weaker binding. For the molecule `CCCCc1cc(OC)c(CC(C)N)cc1OC` (centres unmarked) [DOBU, 4-butyl-2,5-dimethoxyamphetamine], the figures for the Ki on h5-HT2C and at h5-HT2A were 60 nM and 5.4 nM, respectively. For the same molecule, the “Locomotor activity (distance traveled)” value with C57BL/6 J mice (0.03 mg/kg s.c.) is reported as 2,386 ± 181 cm; in the series with C57BL/6 J mice (0.1 mg/kg s.c.) it was 2,342 ± 184 cm; in the series on C57BL/6 J mice (0.3 mg/kg s.c.) it was 2,535 ± 61 cm; in the series on C57BL/6 J mice (1 mg/kg s.c.), 3,030 ± 217 cm; with C57BL/6 J mice (3 mg/kg s.c.), 3,348 ± 297 cm; in the series with C57BL/6 J mice (10 mg/kg s.c.) it was 1,167 ± 195 cm. The “Locomotor activity (distance traveled)” value in the series with C57BL/6 J mice (30 mg/kg s.c.) is recorded as 793 ± 154 cm. For the same molecule, the “HTR in mice ED50 (95% CI)” value with mice is recorded as 1.17 mg/kg. Moreover, the “Selectivity (binding ratios) 5-HT2A/5-HT1A” value at h5-HT2A (ratio of Ki values) was determined as 2506. The “Selectivity (binding ratios) 5-HT2A/5-HT2B” value on h5-HT2A (ratio of Ki values) is reported as 30. The “Selectivity (binding ratios) 5-HT2A/5-HT2C” value on h5-HT2A (ratio of Ki values) was 11.

With `COc1ccc(OC)c(CC(C)N)c1.Cl` (centres unmarked) [2,5-DMA, 2,5-Dimethoxyamphetamine hydrochloride], on h5-HT2C, the Ki is more than 5000 nM. The “Locomotor activity (distance traveled)” value in the series with C57BL/6 J mice (0.03 mg/kg s.c.) is 2,854 ± 266 cm; in the series on C57BL/6 J mice (0.1 mg/kg s.c.) it was 2,763 ± 284 cm; in the series with C57BL/6 J mice (0.3 mg/kg s.c.) it was 2,584 ± 157 cm; with C57BL/6 J mice (1 mg/kg s.c.) it was 2,630 ± 184 cm; in the series on C57BL/6 J mice (3 mg/kg s.c.), 2,780 ± 415 cm; in the series on C57BL/6 J mice (10 mg/kg s.c.) it was 1,801 ± 171 cm. Also, the “Locomotor activity (distance traveled)” value in the series on C57BL/6 J mice (30 mg/kg s.c.) is listed as 1,169 ± 214 cm.

With `CCCCCc1cc(OC)c(CC(C)N)cc1OC` (centres unmarked) [DOAM, 4-amyl-2,5-dimethoxyamphetamine], the values for the Ki at h5-HT2C and on h5-HT2A were 75 nM and 3.5 nM, respectively. For the same molecule, the “Locomotor activity (distance traveled)” value is 2,867 ± 167 cm in the series on C57BL/6 J mice (0.03 mg/kg s.c.); 2,677 ± 103 cm in the series with C57BL/6 J mice (0.1 mg/kg s.c.); 2,307 ± 244 cm in the series with C57BL/6 J mice (0.3 mg/kg s.c.); 2,421 ± 129 cm with C57BL/6 J mice (1 mg/kg s.c.); 2,884 ± 249 cm in the series on C57BL/6 J mice (3 mg/kg s.c.); 3,433 ± 325 cm with C57BL/6 J mice (10 mg/kg s.c.). For the same molecule, in the series on C57BL/6 J mice (30 mg/kg s.c.), the “Locomotor activity (distance traveled)” value was 1,724 ± 138 cm. In addition, the “Dialysate concentration (striatal microdialysis) after co-administration of DOM and DOAM” value in series [1] is reported as less than 0.04 ng/mL. Also, the values for the concentration at 30 min in series [1] (setting [2]) and in series [1] (setting [3]) were 276 ng/g and 12 ng/mL, respectively. Moreover, on h5-HT2A (ratio of Ki values), the “Selectivity (binding ratios) 5-HT2A/5-HT1A” value is given as 2407. In addition, at h5-HT2A (ratio of Ki values), the “Selectivity (binding ratios) 5-HT2A/5-HT2B” value was 28. Further, the “Selectivity (binding ratios) 5-HT2A/5-HT2C” value on h5-HT2A (ratio of Ki values) is 21.

For `CCc1cc(OC)c(CC(C)N)cc1OC` (centres unmarked) [DOET, 4-ethyl-2,5-dimethoxyamphetamine], in the series on mice, the “HTR in mice ED50 (95% CI)” value was 0.20 (0.11–0.36) mg/kg and the “HTR in mice Emax” value is given as 122 total HTR count. The affinity on h5-HT2A, expressed as Ki, was 12 nM.

With `CCCc1cc(OC)c(CC(C)N)cc1OC.Cl` (centres unmarked) [DOPR, 4-propyl-2,5-dimethoxyamphetamine hydrochloride], the Ki stood at 47 nM at h5-HT2C and 11 nM at h5-HT2A. The “Locomotor activity (distance traveled)” value is 2,728 ± 251 cm with C57BL/6 J mice (0.01 mg/kg s.c.); 2,493 ± 199 cm in the series with C57BL/6 J mice (0.03 mg/kg s.c.); 2,791 ± 131 cm in the series with C57BL/6 J mice (0.1 mg/kg s.c.); 3,680 ± 100 cm in the series on C57BL/6 J mice (0.3 mg/kg s.c.); 3,500 ± 278 cm with C57BL/6 J mice (1 mg/kg s.c.); 1,648 ± 262 cm in the series with C57BL/6 J mice (3 mg/kg s.c.). Moreover, the “Locomotor activity (distance traveled)” value with C57BL/6 J mice (10 mg/kg s.c.) is 665 ± 82 cm. Also, at h5-HT2A, the “Selectivity (binding ratios) 5-HT2A/5-HT1A” value came to 359. Further, the “Selectivity (binding ratios) 5-HT2A/5-HT2B” value at h5-HT2A stood at 11. The “Selectivity (binding ratios) 5-HT2A/5-HT2C” value at h5-HT2A is 4.

As to `COc1cc(CC(C)N)c(OC)cc1C` (centres unmarked) [DOM, 4-methyl-2,5-dimethoxyamphetamine], the “Locomotor activity (distance traveled)” value with C57BL/6 J mice (0.03 mg/kg s.c.) is given as 2,696 ± 154 cm; in the series on C57BL/6 J mice (0.1 mg/kg s.c.) it was 2,522 ± 203 cm; in the series on C57BL/6 J mice (0.3 mg/kg s.c.), 3,051 ± 367 cm; in the series on C57BL/6 J mice (1 mg/kg s.c.), 4,272 ± 215 cm; in the series on C57BL/6 J mice (3 mg/kg s.c.), 3,556 ± 278 cm; with C57BL/6 J mice (10 mg/kg s.c.) it was 2,186 ± 443 cm. Further, the “Locomotor activity (distance traveled)” value in the series on C57BL/6 J mice (30 mg/kg s.c.) is listed as 606 ± 47 cm. Besides, the “Dialysate concentration (striatal microdialysis) after co-administration of DOM and DOAM” value in series [1] came to 0.82 ng/mL. Further, the concentration at 30 min was determined as 463 ng/g in series [1] (setting [2]) and 26 ng/mL in series [1] (setting [3]). In addition, on h5-HT2A, the Ki was 66 nM.
